Source: US12404241B2 (Celgene Corporation, priority 2018, dated 2025)
Like-named read-outs stand apart in the source and are kept apart here.

Target: T1, AR (Homo sapiens, UniProt P10275)
T1 construct: endogenous in cells; host or cells: VCaP cells
T1 sequence (P10275 1-920): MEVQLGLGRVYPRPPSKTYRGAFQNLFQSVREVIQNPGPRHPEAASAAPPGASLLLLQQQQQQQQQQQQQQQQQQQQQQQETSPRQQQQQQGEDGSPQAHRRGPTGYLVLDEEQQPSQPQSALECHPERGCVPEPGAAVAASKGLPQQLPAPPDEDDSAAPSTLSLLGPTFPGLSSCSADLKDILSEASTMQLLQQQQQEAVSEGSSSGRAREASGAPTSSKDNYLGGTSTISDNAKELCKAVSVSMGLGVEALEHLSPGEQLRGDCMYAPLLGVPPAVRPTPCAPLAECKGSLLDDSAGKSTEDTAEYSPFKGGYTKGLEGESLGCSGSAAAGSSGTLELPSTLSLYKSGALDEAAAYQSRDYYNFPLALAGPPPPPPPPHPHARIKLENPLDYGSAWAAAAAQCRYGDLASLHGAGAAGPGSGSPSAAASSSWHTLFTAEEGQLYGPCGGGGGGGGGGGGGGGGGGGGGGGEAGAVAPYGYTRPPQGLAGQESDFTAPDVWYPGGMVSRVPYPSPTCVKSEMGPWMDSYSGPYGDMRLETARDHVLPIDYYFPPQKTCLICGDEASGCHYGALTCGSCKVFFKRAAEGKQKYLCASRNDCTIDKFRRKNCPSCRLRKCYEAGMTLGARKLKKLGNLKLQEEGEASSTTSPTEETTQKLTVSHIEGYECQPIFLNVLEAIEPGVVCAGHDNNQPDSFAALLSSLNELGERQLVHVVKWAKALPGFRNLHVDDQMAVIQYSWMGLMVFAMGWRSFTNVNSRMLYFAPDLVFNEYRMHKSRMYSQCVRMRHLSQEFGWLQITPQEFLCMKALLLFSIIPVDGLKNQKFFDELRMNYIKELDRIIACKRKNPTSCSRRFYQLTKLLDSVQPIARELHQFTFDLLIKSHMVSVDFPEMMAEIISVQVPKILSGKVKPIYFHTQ
Assay: VCAP AR Degradation Assay
Format: cell-based
Settings: for Y (AR degradation efficiency, % of DMSO control): class symbols *; for DC50: class symbols A-C
Experimental: VCAP AR Degradation Assay. Test compounds were pre-dispensed into a Corning CellBind 96-well clear bottom plate (Cat #3300) using an acoustic dispenser to make a 10-point concentration series at 1:3 dilution for each compound. The final top concentration of each compound was 5 μM. DMSO at a final concentration of 0.1% was used as a control. VCaP cells cultured in DMEM with 8% fetal bovine serum (FBS) were seeded at 50K cells per well in a 200 μL volume into the compound plate and incubated at 37° C. in a CO2 incubator for 24 h. The medium was carefully removed from the cells and the plate was placed on ice. One hundred μL of ice-cold 1x cell lysis buffer from Cell Signaling Technologies (Cat #9803) was added to each well of the cells and the plate was incubated at 4° C. on a shaker for 1 h. Fifteen μL of cell lysate was used for AR ELISA detection using a PathScan Total Sandwich AR ELISA kit (Cell Signaling Technology, Cat #12580). AR levels in compound-treated wells were normalized to that of DMSO control and expressed as percent of control (PoC) (y). A Four Parameter Logistic Model (Sigmoidal Dose-Response Model) was used to determine the compound's DC50, and EC50, using the following equation:
[formula] • A=YMin (lowest AR level normalized to DMSO control in response to compound treatment, as determined by curve fit) • B=YMax (maximum AR level as determined by curve fit) • C=EC50 • D=Hill Slope • x=compound concentration • EC50=the concentration of compound when y=(YMax−YMin)/2 • DC50=the concentration of the compound when y=50% of DMSO control (50% AR degradation) • y=AR protein level normalized to DMSO control
The lowest measured AR level normalized to DMSO control in response to compound treatment, termed Y value, was used to characterize the compound-mediated AR degradation efficiency.

Structure (SMILES) | Y (AR degradation efficiency, % of DMSO control) | DC50 (read-out: DC50) [µM] | DC50 [µM]
C[C@@H]1CN(CCOc2ccc(N3C(=S)N(c4ccc(C#N)c(C(F)(F)F)c4)C(=O)C3(C)C)cc2C(C)(F)F)C[C@H](C)N1CC(=O)Nc1cccc(NC2CCC(=O)NC2=O)c1 (stereo partly drawn) [Example 252, 2-((2S,6R)-4-(2-(4-(3-(4-cyano-3-(trifluoromethyl)phenyl)-5,5-dimethyl-4-oxo-2-thioxoimidazolidin-1-yl)-2-(1,1-difluoroethyl)phenoxy)ethyl)-2,6-dimethylpiperazin-1-yl)-N-(3-(2,6-dioxopiperidin-3-ylamino)phenyl)acetamide] | * (0<Y<=25%) | < 0.1 | –
CCc1cc(N2C(=S)N(c3ccc(C#N)c(C(F)(F)F)c3)C(=O)C2(C)C)ccc1OCCN1CCN([C@@H](C)C(=O)Nc2cccc(NC3CCC(=O)NC3=O)c2)CC1 (stereo partly drawn) [Example 57, (2S)-2-(4-(2-(4-(3-(4-cyano-3-(trifluoromethyl)phenyl)-5,5-dimethyl-4-oxo-2-thioxoimidazolidin-1-yl)-2-ethylphenoxy)ethyl)piperazin-1-yl)-N-(3-(2,6-dioxopiperidin-3-ylamino)phenyl)propanamide] | * (0<Y<=25%) | < 0.1 | –
CC(C)c1cc(N2C(=S)N(c3cnc(C#N)c(C(F)(F)F)c3)C(=O)C2(C)C)ccc1OCCN1CCN(CC(=O)Nc2cc(Cl)cc(NC3CCC(=O)NC3=O)c2)CC1 (centres unmarked) [Example 93, N-(3-chloro-5-(2,6-dioxopiperidin-3-ylamino)phenyl)-2-(4-(2-(4-(3-(6-cyano-5-(trifluoromethyl)pyridin-3-yl)-5,5-dimethyl-4-oxo-2-thioxoimidazolidin-1-yl)-2-isopropylphenoxy)ethyl)piperazin-1-yl)acetamide] | * (0<Y<=25%) | < 0.1 | –
CCc1cc(N2C(=S)N(c3cnc(C#N)c(C(F)(F)F)c3)C(=O)C2(C)C)ccc1OCCN1CCN(CC(=O)Nc2cccc(NC3CCC(=O)NC3=O)c2)[C@@H](C(F)(F)F)C1 (stereo partly drawn) [Example 200, 2-((R)-4-(2-(4-(3-(6-cyano-5-(trifluoromethyl)pyridin-3-yl)-5,5-dimethyl-4-oxo-2-thioxoimidazolidin-1-yl)-2-ethylphenoxy)ethyl)-2-(trifluoromethyl)piperazin-1-yl)-N-(3-(2,6-dioxopiperidin-3-ylamino)phenyl)acetamide] | * (0<Y<=25%) | < 0.1 | –
CC(C)c1cc(N2C(=S)N(c3ccc(C#N)c(Cl)c3)C(=O)C2(C)C)ccc1OCCN1C[C@@H](C)N(CC(=O)Nc2cc(C#N)cc(NC3CCC(=O)NC3=O)c2)[C@@H](C)C1 (stereo partly drawn) [Example 250, 2-((2S,6R)-4-(2-(4-(3-(3-chloro-4-cyanophenyl)-5,5-dimethyl-4-oxo-2-thioxoimidazolidin-1-yl)-2-isopropylphenoxy)ethyl)-2,6-dimethylpiperazin-1-yl)-N-(3-cyano-5-(2,6-dioxopiperidin-3-ylamino)phenyl)acetamide] | * (0<Y<=25%) | < 0.1 | –
CCc1cc(N2C(=S)N(c3cnc(C#N)c(C(F)(F)F)c3)C(=O)C2(C)C)ccc1OCCN1CCN(CC(=O)Nc2cccc(NC3CCC(=O)NC3=O)c2)[C@H](C(F)(F)F)C1 (stereo partly drawn) [Example 201, 2-((S)-4-(2-(4-(3-(6-cyano-5-(trifluoromethyl)pyridin-3-yl)-5,5-dimethyl-4-oxo-2-thioxoimidazolidin-1-yl)-2-ethylphenoxy)ethyl)-2-(trifluoromethyl)piperazin-1-yl)-N-(3-(2,6-dioxopiperidin-3-ylamino)phenyl)acetamide] | * (0<Y<=25%) | < 0.1 | –
CCc1cc(N2C(=S)N(c3ccc(C#N)c(C(F)(F)F)c3)C(=O)C2(C)C)cc(F)c1OCCN1C[C@@H](C)N(CC(=O)Nc2cccc(NC3CCC(=O)NC3=O)c2)[C@@H](C)C1 (stereo partly drawn) [Example 248, 2-((2S,6R)-4-(2-(4-(3-(4-cyano-3-(trifluoromethyl)phenyl)-5,5-dimethyl-4-oxo-2-thioxoimidazolidin-1-yl)-2-ethyl-6-fluorophenoxy)ethyl)-2,6-dimethylpiperazin-1-yl)-N-(3-(2,6-dioxopiperidin-3-ylamino)phenyl)acetamide] | * (0<Y<=25%) | < 0.1 | –
CCc1cc(N2C(=S)N(c3ccc(C#N)c(C(F)(F)F)c3)C(=O)C2(C)C)ccc1OCCN1C[C@@H](C)N(CC(=O)Nc2cccc(NC3CCC(=O)NC3=O)c2)C[C@@H]1C (stereo partly drawn) [Example 121, 2-((2R,5S)-4-(2-(4-(3-(4-cyano-3-(trifluoromethyl)phenyl)-5,5-dimethyl-4-oxo-2-thioxoimidazolidin-1-yl)-2-ethylphenoxy)ethyl)-2,5-dimethylpiperazin-l-yl)-N-(3-(2,6-dioxopiperidin-3-ylamino)phenyl)acetamide] | * (0<Y<=25%) | < 0.1 | –
C[C@@H]1CN(CCOc2ccc(N3C(=S)N(c4ccc(C#N)c(C(F)(F)F)c4)C(=O)C3(C)C)cc2CC(F)F)CCN1CC(=O)Nc1cc(F)cc(NC2CCC(=O)NC2=O)c1 (stereo partly drawn) [Example 158, 2-((R)-4-(2-(4-(3-(4-cyano-3-(trifluoromethyl)phenyl)-5,5-dimethyl-4-oxo-2-thioxoimidazolidin-1-yl)-2-(2,2-difluoroethyl)phenoxy)ethyl)-2-methylpiperazin-1-yl)-N-(3-(2,6-dioxopiperidin-3-ylamino)-5-fluorophenyl)acetamide] | * (0<Y<=25%) | < 0.1 | –
CCc1cc(N2C(=S)N(c3cnc(C#N)c(C(F)(F)F)c3)C(=O)C2(C)C)ccc1OCCN1CCN(CC(=O)Nc2cc(NC3CCC(=O)NC3=O)cc(F)c2F)C(C)(C)C1 (centres unmarked) [Example 83, 2-(4-(2-(4-(3-(6-cyano-5-(trifluoromethyl)pyridin-3-yl)-5,5-dimethyl-4-oxo-2-thioxoimidazolidin-1-yl)-2-ethylphenoxy)ethyl)-2,2-dimethylpiperazin-1-yl)-N-(5-(2,6-dioxopiperidin-3-ylamino)-2,3-difluorophenyl)acetamide] | * (0<Y<=25%) | < 0.1 | –
CCc1cc(N2C(=S)N(c3cnc(C#N)c(C(F)(F)F)c3)C(=O)C23CCC3)ccc1OCCN1CC2CCC(C1)N2CC(=O)Nc1cccc(NC2CCC(=O)NC2=O)c1 (centres unmarked) [Example 171, 2-(3-(2-(4-(7-(6-cyano-5-(trifluoromethyl)pyridin-3-yl)-8-oxo-6-thioxo-5,7-diazaspiro[3.4]octan-5-yl)-2-ethylphenoxy)ethyl)-3,8-diazabicyclo[3.2.1]octan-8-yl)-N-(3-(2,6-dioxopiperidin-3-ylamino)phenyl)acetamide] | * (0<Y<=25%) | – | < 0.1
CCc1cc(N2C(=S)N(c3cnc(C#N)c(C(F)(F)F)c3)C(=O)C2(C)C)ccc1OCCN1CCN(CC(=O)Nc2cc(NC3CCC(=O)NC3=O)ccc2Cl)CC1 (single isomer, unassigned) [Example 47] | * (0<Y<=25%) | < 0.1 | –
CCc1cc(N2C(=S)N(c3ccc(C#N)c(C(F)(F)F)c3)C(=O)C2(C)C)ccc1OCCN1CCN([C@@H](C)C(=O)Nc2cccc(NC3CCC(=O)NC3=O)c2)[C@@H](C)C1 (stereo partly drawn) [Example 275, (2S)-2-((S)-4-(2-(4-(3-(4-cyano-3-(trifluoromethyl)phenyl)-5,5-dimethyl-4-oxo-2-thioxoimidazolidin-1-yl)-2-ethylphenoxy)ethyl)-2-methylpiperazin-1-yl)-N-(3-(2,6-dioxopiperidin-3-ylamino)phenyl)propanamide] | * (0<Y<=25%) | < 0.1 | –
